From patent US20090068290A1, “BIFEPRUNOX DOSES FOR TREATING SCHIZOPHRENIA” (priority 2006, published 2009)

Tests used:
[1] = system: patients with chronic schizophrenia; assay: BPRS total and psychosis cluster scores, Clinical Study Four; format: in vivo, human; details: FAS, LOCF, ANCOVA
Method: (§1) METHODOLOGY: This study was a multinational, multicenter, randomized, double-blind, parallel-group, placebo-controlled, fixed-dose study. The study consisted of a 3- to 6-day antipsychotic-free run-in period, after which patients were randomised to 6 months of double-blind treatment with fixed doses of bifeprunox (20 mg/day (BX20) or 30 mg/day (BX30)) or placebo (PBO). Patients allocated to the BX groups were up-titrated from 0.25 mg/day over 7 days (BX20) or 8 days (BX30), and then continued on these doses for the remainder of the study. […] At predetermined time points, blood samples were obtained for drug concentration analysis of BX and its major metabolites (3′- and 4′-sulfate conjugates of BX), and pharmaco-economic assessments were performed.

[2] = system: patients with chronic schizophrenia; assay: PANSS total score, Clinical Study Four; format: in vivo, human; details: FAS, ANCOVA; for Adjusted Mean Change from Baseline in PANSS Total Score, Difference to PBO Mean: Week 6 (day 42)
Method: as §1

`O=c1[nH]c2cccc(N3CCN(Cc4cccc(-c5ccccc5)c4)CC3)c2o1` [Bifeprunox, 7-[4-([1,1′-biphenyl]-3-ylmethyl)-1-piperazinyl]-2(3H)-benzoxazolone] was tested, and the “BPRS psychosis cluster, Adjusted Mean Change from Baseline (LS mean)” value ([1]; Month 6, listed as BX20) was −0.1, the “BPRS total, Adjusted Mean Change from Baseline (LS mean)” value (“BPRS total, Adjusted Mean Change” for short) ([1]; Month 6, listed as BX20) was −0.1 and the “BPRS psychosis cluster, Adjusted Mean Change from Baseline (LS mean)” value ([1]; Month 6, listed as BX30) was −0.2. The “BPRS total, Adjusted Mean Change” value ([1]; Month 6, listed as BX30) was 0.5, the “BPRS psychosis cluster, Adjusted Mean Change from Baseline (LS mean)” value ([1]; Week 6, listed as BX20) was −0.8 and the “BPRS total, Adjusted Mean Change” value ([1]; Week 6, listed as BX20) was −2.1. For the same compound, the “BPRS psychosis cluster, Adjusted Mean Change from Baseline (LS mean)” value ([1]; Week 6, listed as BX30) was −0.7, the “BPRS total, Adjusted Mean Change” value ([1]; Week 6, listed as BX30) was −1.3 and the “Adjusted Mean Change from Baseline in PANSS Total Score, Difference to PBO Mean” value ([2]; BX20 (bifeprunox 20 mg/day), LOCF) was −5.07. For the same compound, the “Adjusted Mean Change from Baseline in PANSS Total Score, Difference to PBO Mean” value ([2]; BX30 (bifeprunox 30 mg/day), LOCF) was −3.71, the “Adjusted Mean Change from Baseline in PANSS Total Score, Least Squares Estimates Mean” value ([2]; Day 7, LOCF, listed as BX20) was −1.89 and the “Change from Baseline in PANSS Total Score, Difference to PBO Mean” value ([2]; Day 7, LOCF, listed as BX20) was −1.30. For the same compound, the “Adjusted Mean Change from Baseline in PANSS Total Score, Least Squares Estimates Mean” value ([2]; Day 7, LOCF, listed as BX30) was −0.73, the “Change from Baseline in PANSS Total Score, Difference to PBO Mean” value ([2]; Day 7, LOCF, listed as BX30) was −0.14 and the “Adjusted Mean Change from Baseline in PANSS Total Score, Least Squares Estimates Mean” value ([2]; Day 7, OC, listed as BX20) was −1.89. The “Change from Baseline in PANSS Total Score, Difference to PBO Mean” value ([2]; Day 7, OC, listed as BX20) was −1.30, the “Adjusted Mean Change from Baseline in PANSS Total Score, Least Squares Estimates Mean” value ([2]; Day 7, OC, listed as BX30) was −0.73 and the “Change from Baseline in PANSS Total Score, Difference to PBO Mean” value ([2]; Day 7, OC, listed as BX30) was −0.14. The “Adjusted Mean Change from Baseline in PANSS Total Score, Least Squares Estimates Mean” value ([2]; Day 7, POCF, listed as BX20) was −2.81, the “Change from Baseline in PANSS Total Score, Difference to PBO Mean” value ([2]; Day 7, POCF, listed as BX20) was −1.33 and the “Adjusted Mean Change from Baseline in PANSS Total Score, Least Squares Estimates Mean” value ([2]; Day 7, POCF, listed as BX30) was −2.23. For the same compound, the “Change from Baseline in PANSS Total Score, Difference to PBO Mean” value ([2]; Day 7, POCF, listed as BX30) was −0.76, the “Adjusted Mean Change from Baseline in PANSS Total Score, Least Squares Estimates Mean” value ([2]; Day 14, LOCF, listed as BX20) was −3.03 and the “Change from Baseline in PANSS Total Score, Difference to PBO Mean” value ([2]; Day 14, LOCF, listed as BX20) was −2.38. For the same compound, the “Adjusted Mean Change from Baseline in PANSS Total Score, Least Squares Estimates Mean” value ([2]; Day 14, LOCF, listed as BX30) was −1.45, the “Change from Baseline in PANSS Total Score, Difference to PBO Mean” value ([2]; Day 14, LOCF, listed as BX30) was −0.79 and the “Adjusted Mean Change from Baseline in PANSS Total Score, Least Squares Estimates Mean” value ([2]; Day 14, OC, listed as BX20) was −4.77. For the same compound, the “Change from Baseline in PANSS Total Score, Difference to PBO Mean” value ([2]; Day 14, OC, listed as BX20) was −2.39, the “Adjusted Mean Change from Baseline in PANSS Total Score, Least Squares Estimates Mean” value ([2]; Day 14, OC, listed as BX30) was −4.43 and the “Change from Baseline in PANSS Total Score, Difference to PBO Mean” value ([2]; Day 14, OC, listed as BX30) was −2.05. For the same compound, the “Adjusted Mean Change from Baseline in PANSS Total Score, Least Squares Estimates Mean” value ([2]; Day 14, POCF, listed as BX20) was −5.48, the “Change from Baseline in PANSS Total Score, Difference to PBO Mean” value ([2]; Day 14, POCF, listed as BX20) was −2.61 and the “Adjusted Mean Change from Baseline in PANSS Total Score, Least Squares Estimates Mean” value ([2]; Day 14, POCF, listed as BX30) was −4.65. The “Change from Baseline in PANSS Total Score, Difference to PBO Mean” value ([2]; Day 14, POCF, listed as BX30) was −1.78, the “Adjusted Mean Change from Baseline in PANSS Total Score, Least Squares Estimates Mean” value ([2]; Day 28, LOCF, listed as BX20) was “−.327” and the “Change from Baseline in PANSS Total Score, Difference to PBO Mean” value ([2]; Day 28, LOCF, listed as BX20) was −3.34. For the same compound, the “Adjusted Mean Change from Baseline in PANSS Total Score, Least Squares Estimates Mean” value ([2]; Day 28, LOCF, listed as BX30) was −2.13, the “Change from Baseline in PANSS Total Score, Difference to PBO Mean” value ([2]; Day 28, LOCF, listed as BX30) was −2.20 and the “Adjusted Mean Change from Baseline in PANSS Total Score, Least Squares Estimates Mean” value ([2]; Day 28, OC, listed as BX20) was −7.61. For the same compound, the “Change from Baseline in PANSS Total Score, Difference to PBO Mean” value ([2]; Day 28, OC, listed as BX20) was −4.09, the “Adjusted Mean Change from Baseline in PANSS Total Score, Least Squares Estimates Mean” value ([2]; Day 28, OC, listed as BX30) was −7.14 and the “Change from Baseline in PANSS Total Score, Difference to PBO Mean” value ([2]; Day 28, OC, listed as BX30) was −3.63. For the same compound, the “Adjusted Mean Change from Baseline in PANSS Total Score, Least Squares Estimates Mean” value ([2]; Day 28, POCF, listed as BX20) was −7.74, the “Change from Baseline in PANSS Total Score, Difference to PBO Mean” value ([2]; Day 28, POCF, listed as BX20) was −3.63 and the “Adjusted Mean Change from Baseline in PANSS Total Score, Least Squares Estimates Mean” value ([2]; Day 28, POCF, listed as BX30) was −6.85. For the same compound, the “Change from Baseline in PANSS Total Score, Difference to PBO Mean” value ([2]; Day 28, POCF, listed as BX30) was −2.74, the “Adjusted Mean Change from Baseline in PANSS Total Score, Least Squares Estimates Mean” value ([2]; Day 42, LOCF, listed as BX20) was −4.01 and the “Change from Baseline in PANSS Total Score, Difference to PBO Mean” value ([2]; Day 42, LOCF, listed as BX20) was −5.07. The “Adjusted Mean Change from Baseline in PANSS Total Score, Least Squares Estimates Mean” value ([2]; Day 42, LOCF, listed as BX30) was −2.65, the “Change from Baseline in PANSS Total Score, Difference to PBO Mean” value ([2]; Day 42, LOCF, listed as BX30) was −3.71 and the “Adjusted Mean Change from Baseline in PANSS Total Score, Least Squares Estimates Mean” value ([2]; Day 42, OC, listed as BX20) was −12.40. The “Change from Baseline in PANSS Total Score, Difference to PBO Mean” value ([2]; Day 42, OC, listed as BX20) was −6.14, the “Adjusted Mean Change from Baseline in PANSS Total Score, Least Squares Estimates Mean” value ([2]; Day 42, OC, listed as BX30) was −11.23 and the “Change from Baseline in PANSS Total Score, Difference to PBO Mean” value ([2]; Day 42, OC, listed as BX30) was −4.97. The “Adjusted Mean Change from Baseline in PANSS Total Score, Least Squares Estimates Mean” value ([2]; Day 42, POCF, listed as BX20) was −9.40, the “Change from Baseline in PANSS Total Score, Difference to PBO Mean” value ([2]; Day 42, POCF, listed as BX20) was −4.32 and the “Adjusted Mean Change from Baseline in PANSS Total Score, Least Squares Estimates Mean” value ([2]; Day 42, POCF, listed as BX30) was −8.12. For the same compound, the “Change from Baseline in PANSS Total Score, Difference to PBO Mean” value ([2]; Day 42, POCF, listed as BX30) was −3.05, the “Adjusted Mean Change from Baseline in PANSS Total Score, Least Squares Estimates Mean” value ([2]; Day 63, LOCF, listed as BX20) was −3.22 and the “Change from Baseline in PANSS Total Score, Difference to PBO Mean” value ([2]; Day 63, LOCF, listed as BX20) was −5.47. The “Adjusted Mean Change from Baseline in PANSS Total Score, Least Squares Estimates Mean” value ([2]; Day 63, LOCF, listed as BX30) was −2.44, the “Change from Baseline in PANSS Total Score, Difference to PBO Mean” value ([2]; Day 63, LOCF, listed as BX30) was −4.68 and the “Adjusted Mean Change from Baseline in PANSS Total Score, Least Squares Estimates Mean” value ([2]; Day 63, OC, listed as BX20) was −12.85. For the same compound, the “Change from Baseline in PANSS Total Score, Difference to PBO Mean” value ([2]; Day 63, OC, listed as BX20) was −4.52, the “Adjusted Mean Change from Baseline in PANSS Total Score, Least Squares Estimates Mean” value ([2]; Day 63, OC, listed as BX30) was −12.45 and the “Change from Baseline in PANSS Total Score, Difference to PBO Mean” value ([2]; Day 63, OC, listed as BX30) was −4.12. For the same compound, the “Adjusted Mean Change from Baseline in PANSS Total Score, Least Squares Estimates Mean” value ([2]; Day 63, POCF, listed as BX20) was −10.03, the “Change from Baseline in PANSS Total Score, Difference to PBO Mean” value ([2]; Day 63, POCF, listed as BX20) was −4.83 and the “Adjusted Mean Change from Baseline in PANSS Total Score, Least Squares Estimates Mean” value ([2]; Day 63, POCF, listed as BX30) was −8.97.
